Measured values taken from patent EP0332332B1, “Hypoglycemic thiazolidinedione derivatives” (PFIZER INC., priority 1988, dated 1989).

Tested on: C57 BL/6J-ob/ob mice
Assay: test for hypoglycemic effect in ob/ob mice
Format: in vivo
Conditions: plasma glucose on day 5, ob/ob mice dosed daily for five days, 50 mg/kg in 0.25% w/v methyl cellulose; value given as an example (e.g.)
From the text: The present compounds of the formula (I) are readily adapted to clinical use as hypoglycemic or hypocholesterolemic agents. The activity required for this former clinical use is defined by the test for hypoglycemic effect in ob/ob mice by the following procedure:
Five to eight week old C57 BL/6J-ob/ob mice (obtained from Jackson Laboratory, Bar Harbor, Maine) were housed five per cage under standard animal care practices. After a one week acclimation period, the animals were weighed and 25 microliters of blood was collected via an ocular bleed prior to any treatment. The blood sample was immediately diluted 1:5 with saline containing 2.5 mg/ml sodium fluoride and 2% sodium heparin, and held on ice for metabolite analysis. […] The supernatant was analyzed for glucose, for example, by the ABA 200 Bichromatic Analyzer™, using the A-gent™ glucose UV reagent system* (hexokinase method) using 20, 60 and 100 mg/dl standards. Plasma glucose was then calculated by the equation, Plasma glucose (mg/dl) = Sample value x 5 x 1.67 = 8.35 x Sample value [formula] where 5 is the dilution factor and 1.67 is the plasma hematocrit adjustment (assuming the hematocrit is 40%). ™A registered trademark of Abbott Laboratories, Diagnostics Division, 820 Mission Street, So. […]

Question: Which glucose levels does the source give for CC1(COc2ccc(CC3SC(=O)NC3=O)cc2)CCCCC1 (stereo not shown) [positive control, ciglitazone] here?
Answer: ~130 mg/dL
